Assay results as given in patent US9493426B2, “Quinazolinone derivatives useful as FGFR kinase modulators” (priority 2013, dated 2016).

target: T1, Ba/F3-FGFR3-transfected cells (Homo sapiens, UniProt P22607, cells depend on it, form not given); test: Ba/F3-FGFR3 (minus IL3 or plus IL3) cellular proliferation assay; type: cell-based; conditions: 24 hours, Alamar Blue
T1 construct: BAF3-FGFR3 (MIN IL3 pIC50); other: minus IL3; 24 hours, Alamar Blue
Procedure: Ba/F3-FGFR3 (Minus IL3 or Plus IL3) (Cellular Proliferation Assay)
(§1) In a 384 well plate, 100 nl of compound dilution in DMSO was sprayed before adding 50 μl cell culture medium (phenol red free RPMI-1640, 10% FBS, 2 mM L-Glutamine and 50 μg/ml Gentamycin) containing 20000 cells per well of Ba/F3-FGFR3-transfected cells. Cells were put in an incubator at 37° C. and 5% CO2. After 24 hours, 10 μl of Alamar Blue solution (0.5 mM K3Fe(CN)6, 0.5 mM K4Fe(CN)6, 0.15 mM Resazurin and 100 mM Phosphate Buffer) was added to the wells, incubated for 4 hours at 37° C. and 5% CO2 before RFU's (Relative Fluorescence Units) (ex. 540 nm., em. 590 nm.) were measured in a fluorescence plate reader.
(§2) In this assay, the inhibitory effect of different compound concentrations (range 10 μM to 0.1 nM) was determined and used to calculate an IC50 (M) and pIC50 (−log IC50) value. As a counterscreen the same experiment was performed in the presence of 10 ng/ml murine IL3.

T1 sequence (P22607 whole entry, looked up, change not shown): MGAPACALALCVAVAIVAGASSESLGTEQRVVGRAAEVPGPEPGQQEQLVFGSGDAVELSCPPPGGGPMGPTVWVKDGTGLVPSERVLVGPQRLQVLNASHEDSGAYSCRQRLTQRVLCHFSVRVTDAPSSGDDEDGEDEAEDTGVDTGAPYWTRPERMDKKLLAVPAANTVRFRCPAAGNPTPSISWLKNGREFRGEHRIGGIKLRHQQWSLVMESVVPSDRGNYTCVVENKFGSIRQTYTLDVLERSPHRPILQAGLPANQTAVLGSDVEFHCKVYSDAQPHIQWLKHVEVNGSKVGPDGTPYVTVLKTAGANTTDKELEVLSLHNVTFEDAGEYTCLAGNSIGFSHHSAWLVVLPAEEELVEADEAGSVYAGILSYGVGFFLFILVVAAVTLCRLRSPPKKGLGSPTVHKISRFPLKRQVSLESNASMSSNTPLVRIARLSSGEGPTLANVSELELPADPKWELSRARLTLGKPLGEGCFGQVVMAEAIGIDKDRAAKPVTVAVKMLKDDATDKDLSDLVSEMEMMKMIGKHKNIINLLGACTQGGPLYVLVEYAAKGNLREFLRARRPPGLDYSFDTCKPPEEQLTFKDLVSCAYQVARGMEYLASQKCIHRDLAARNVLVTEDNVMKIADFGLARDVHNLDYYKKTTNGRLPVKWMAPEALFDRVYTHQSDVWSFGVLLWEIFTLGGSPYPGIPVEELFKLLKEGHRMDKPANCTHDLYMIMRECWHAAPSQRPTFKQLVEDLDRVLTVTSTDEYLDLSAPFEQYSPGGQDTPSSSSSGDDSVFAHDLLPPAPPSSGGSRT

Structure (SMILES)	BAF3-FGFR3 (MIN IL3 pIC50)
COc1cc(OC)cc(C(=O)c2ccc3ncn(-c4cnn(C)c4)c(=O)c3c2)c1 [Compound 24]	<5
COc1cc(OC)cc(N(CCNC(C)C)c2ccc3ncn(-c4cnn(C)c4)c(=O)c3c2)c1 [Compound 9]	~7.09
COc1cc(OC)c(F)c(N(CCNC(C)C)c2ccc3ncn(-c4cnn(C)c4)c(=O)c3c2)c1 [Compound 17]	7.7

target: T2, Ba/F3-KDR-transfected cells (Homo sapiens, UniProt P35968, cells depend on it, form not given); test: Ba/F3-KDR (minus IL3 or plus IL3) cellular proliferation assay; type: cell-based; conditions: 24 hours, Alamar Blue
T2 construct: BAF3-KDR (MIN IL3 pIC50); other: minus IL3; 24 hours, Alamar Blue
Procedure: Ba/F3-KDR (Minus IL3 or Plus IL3) (Cellular Proliferation Assay)
as §1, with “Ba/F3-KDR-transfected” for “Ba/F3-FGFR3-transfected”
as §2

T2 sequence (P35968 whole entry, looked up, change not shown): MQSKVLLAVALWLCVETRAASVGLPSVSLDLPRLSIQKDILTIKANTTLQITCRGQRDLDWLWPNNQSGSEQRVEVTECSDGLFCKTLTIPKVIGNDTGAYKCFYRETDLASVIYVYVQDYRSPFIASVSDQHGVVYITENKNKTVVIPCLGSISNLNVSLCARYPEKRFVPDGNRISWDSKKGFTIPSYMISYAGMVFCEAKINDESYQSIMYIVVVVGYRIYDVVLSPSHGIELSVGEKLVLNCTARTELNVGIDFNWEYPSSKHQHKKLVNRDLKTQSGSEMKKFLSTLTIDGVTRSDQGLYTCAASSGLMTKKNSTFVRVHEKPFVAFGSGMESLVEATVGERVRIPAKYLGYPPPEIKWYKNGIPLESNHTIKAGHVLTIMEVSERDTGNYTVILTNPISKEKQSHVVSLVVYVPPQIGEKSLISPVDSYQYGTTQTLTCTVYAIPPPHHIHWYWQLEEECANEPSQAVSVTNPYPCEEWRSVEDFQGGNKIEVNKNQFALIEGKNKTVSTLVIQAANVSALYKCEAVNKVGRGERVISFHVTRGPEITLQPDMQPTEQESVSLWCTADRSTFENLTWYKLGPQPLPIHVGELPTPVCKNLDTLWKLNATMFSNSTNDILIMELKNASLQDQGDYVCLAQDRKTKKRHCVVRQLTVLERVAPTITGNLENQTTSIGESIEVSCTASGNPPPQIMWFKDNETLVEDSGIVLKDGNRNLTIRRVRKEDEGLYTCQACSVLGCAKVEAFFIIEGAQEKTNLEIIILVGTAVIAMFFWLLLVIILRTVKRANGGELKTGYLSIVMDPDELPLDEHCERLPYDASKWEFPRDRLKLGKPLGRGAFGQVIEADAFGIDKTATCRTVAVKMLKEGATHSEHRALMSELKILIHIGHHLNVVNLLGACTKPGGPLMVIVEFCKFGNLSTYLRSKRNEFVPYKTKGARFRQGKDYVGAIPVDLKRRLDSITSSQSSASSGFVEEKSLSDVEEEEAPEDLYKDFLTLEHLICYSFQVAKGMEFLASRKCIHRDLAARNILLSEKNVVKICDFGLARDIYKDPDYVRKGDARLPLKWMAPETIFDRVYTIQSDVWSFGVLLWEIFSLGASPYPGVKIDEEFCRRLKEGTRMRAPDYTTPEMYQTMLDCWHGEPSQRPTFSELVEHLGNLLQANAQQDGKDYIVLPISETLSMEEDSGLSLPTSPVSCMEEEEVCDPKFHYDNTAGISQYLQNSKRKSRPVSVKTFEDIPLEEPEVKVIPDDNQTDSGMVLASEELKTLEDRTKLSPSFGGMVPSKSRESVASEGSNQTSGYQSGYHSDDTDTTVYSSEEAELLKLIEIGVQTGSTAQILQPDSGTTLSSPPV

Structure (SMILES)	BAF3-KDR (MIN IL3 pIC50)
COc1cc(OC)cc(C(=O)c2ccc3ncn(-c4cnn(C)c4)c(=O)c3c2)c1 [Compound 24]	<5
COc1cc(OC)cc(N(CCNC(C)C)c2ccc3ncn(-c4cnn(C)c4)c(=O)c3c2)c1 [Compound 9]	5.2
COc1cc(OC)c(F)c(N(CCNC(C)C)c2ccc3ncn(-c4cnn(C)c4)c(=O)c3c2)c1 [Compound 17]	5.5

target: KDR (h) (Homo sapiens, UniProt P35968); test: KDR (VEGFR2) (enzymatic assay), TR-FRET; type: biochemical; conditions: 3 μM ATP; pIC50 = -log IC50 (M); read-out: VEGFR KDR pIC50 (converted)
Procedure: KDR (VEGFR2) (Enzymatic Assay)
In a final reaction volume of 30 μL, KDR (h) (150 ng/ml) was incubated with 50 mM HEPES pH 7.5, 6 mM MnCl2, 1 mM DTT, 0.1 mM Na3VO4, 0.01% Triton-X-100, 500 nM Btn-Flt3 and 3 μM ATP in the presence of compound (1% DMSO final). After incubation for 120 minutes at room temperature the reaction was stopped with 2.27 nM EU-anti P-Tyr, 7 mM EDTA, 31.25 nM SA-XL-665 and 0.02% BSA which was present for 60 minutes at room temperature. Time-Resolved Fluorescence Resonance Energy Transfer (TR-FRET) signal (ex340 nm. Em 620 nm, em 655 nm) was measured afterwards and results are expressed in RFU (Relative Fluorescence Units). In this assay, the inhibitory effect of different compound concentrations (range 10 μM to 0.1 nM) was determined and used to calculate an IC50 (M) and pIC50 (−log IC50) value.

Structure (SMILES)	IC50
COc1cc(OC)cc(C(=O)c2ccc3ncn(-c4cnn(C)c4)c(=O)c3c2)c1 [Compound 24]	> 1e-06 M
COc1cc(OC)cc(N(CCNC(C)C)c2ccc3ncn(-c4cnn(C)c4)c(=O)c3c2)c1 [Compound 9]	5.01e-07 M
COc1cc(OC)c(F)c(N(CCNC(C)C)c2ccc3ncn(-c4cnn(C)c4)c(=O)c3c2)c1 [Compound 17]	1.26e-07 M

target: Ba/F3-FGFR4-transfected cells (Homo sapiens, UniProt P22455, cells depend on it, form not given); test: Ba/F3-FGFR4 cellular proliferation assay; type: cell-based; conditions: 24 hours, Alamar Blue
Procedure: Ba/F3-FGFR4 (Cellular Proliferation Assay)
as §1, with “Ba/F3-FGFR4-transfected” for “Ba/F3-FGFR3-transfected”
In this assay, the inhibitory effect of different compound concentrations (range 10 μM to 0.1 nM) was determined and used to calculate an IC50 (M) and pIC50 (−log IC50) value.

Ba/F3-FGFR4-transfected cells, sequence (P22455 whole entry, looked up, change not shown): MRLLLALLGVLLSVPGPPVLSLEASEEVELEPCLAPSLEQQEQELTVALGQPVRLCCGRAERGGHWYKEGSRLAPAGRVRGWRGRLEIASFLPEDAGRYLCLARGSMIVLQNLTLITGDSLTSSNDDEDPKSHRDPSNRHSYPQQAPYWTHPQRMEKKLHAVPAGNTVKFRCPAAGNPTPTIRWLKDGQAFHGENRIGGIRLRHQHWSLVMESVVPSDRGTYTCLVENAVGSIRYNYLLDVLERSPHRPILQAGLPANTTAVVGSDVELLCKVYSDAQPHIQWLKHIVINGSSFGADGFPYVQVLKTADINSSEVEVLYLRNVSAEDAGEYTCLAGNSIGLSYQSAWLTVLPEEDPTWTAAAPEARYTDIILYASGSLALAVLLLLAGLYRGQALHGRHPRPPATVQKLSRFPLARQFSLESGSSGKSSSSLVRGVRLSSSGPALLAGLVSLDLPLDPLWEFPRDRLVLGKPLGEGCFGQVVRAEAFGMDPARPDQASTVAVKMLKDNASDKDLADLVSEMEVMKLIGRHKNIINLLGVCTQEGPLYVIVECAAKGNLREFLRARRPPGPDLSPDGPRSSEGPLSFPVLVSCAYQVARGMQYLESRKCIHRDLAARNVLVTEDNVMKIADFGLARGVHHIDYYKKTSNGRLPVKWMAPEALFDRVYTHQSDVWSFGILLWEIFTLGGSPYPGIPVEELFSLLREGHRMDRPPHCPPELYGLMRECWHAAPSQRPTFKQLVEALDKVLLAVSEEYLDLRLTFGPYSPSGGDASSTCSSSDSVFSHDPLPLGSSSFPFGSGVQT

Structure (SMILES)	BAF3-FGFR4 (pIC50)
COc1cc(OC)cc(C(=O)c2ccc3ncn(-c4cnn(C)c4)c(=O)c3c2)c1 [Compound 24]	<5
COc1cc(OC)cc(N(CCNC(C)C)c2ccc3ncn(-c4cnn(C)c4)c(=O)c3c2)c1 [Compound 9]	6.2
COc1cc(OC)c(F)c(N(CCNC(C)C)c2ccc3ncn(-c4cnn(C)c4)c(=O)c3c2)c1 [Compound 17]	6.8

tested on: not given; test: not given; conditions: not given

Structure (SMILES)	melting point
COc1cc(OC)cc(C(=O)c2ccc3ncn(-c4cnn(C)c4)c(=O)c3c2)c1 [Compound 24]	194 °C
COc1cc(OC)cc(N(CCNC(C)C)c2ccc3ncn(-c4cnn(C)c4)c(=O)c3c2)c1 [Compound 9]	142 °C
COc1cc(OC)c(F)c(N(CCNC(C)C)c2ccc3ncn(-c4cnn(C)c4)c(=O)c3c2)c1 [Compound 17]	132 °C

target: FGFR4 (h) (Homo sapiens, UniProt P22455); test: FGFR4 (enzymatic assay), TR-FRET; type: biochemical; conditions: 5 μM ATP; pIC50 = -log IC50 (M); read-out: FGFR 4 pIC50 (converted)
Sequence (P22455 22-802): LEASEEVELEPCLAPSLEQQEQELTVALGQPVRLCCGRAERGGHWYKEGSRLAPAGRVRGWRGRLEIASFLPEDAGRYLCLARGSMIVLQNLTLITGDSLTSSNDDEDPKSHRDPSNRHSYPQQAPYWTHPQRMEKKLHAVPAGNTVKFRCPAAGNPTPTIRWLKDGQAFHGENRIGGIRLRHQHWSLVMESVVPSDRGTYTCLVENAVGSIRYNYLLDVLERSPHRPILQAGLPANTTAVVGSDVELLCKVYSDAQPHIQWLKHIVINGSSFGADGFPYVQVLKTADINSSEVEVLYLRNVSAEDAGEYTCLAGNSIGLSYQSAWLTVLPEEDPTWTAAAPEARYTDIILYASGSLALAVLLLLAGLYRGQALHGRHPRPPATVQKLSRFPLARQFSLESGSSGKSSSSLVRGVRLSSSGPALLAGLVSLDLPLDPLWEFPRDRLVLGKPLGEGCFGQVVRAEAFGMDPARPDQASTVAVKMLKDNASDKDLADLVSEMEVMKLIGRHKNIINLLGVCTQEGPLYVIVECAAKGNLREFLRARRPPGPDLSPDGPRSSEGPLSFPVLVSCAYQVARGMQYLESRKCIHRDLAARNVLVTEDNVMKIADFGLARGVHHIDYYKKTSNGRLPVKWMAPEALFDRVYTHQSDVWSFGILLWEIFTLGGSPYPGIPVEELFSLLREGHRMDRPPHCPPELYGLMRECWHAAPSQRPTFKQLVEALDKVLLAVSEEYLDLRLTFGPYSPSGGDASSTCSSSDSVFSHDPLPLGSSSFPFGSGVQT

Structure (SMILES)	IC50
COc1cc(OC)cc(C(=O)c2ccc3ncn(-c4cnn(C)c4)c(=O)c3c2)c1 [Compound 24]	> 1e-06 M
COc1cc(OC)cc(N(CCNC(C)C)c2ccc3ncn(-c4cnn(C)c4)c(=O)c3c2)c1 [Compound 9]	5.01e-08 M
COc1cc(OC)c(F)c(N(CCNC(C)C)c2ccc3ncn(-c4cnn(C)c4)c(=O)c3c2)c1 [Compound 17]	3.16e-08 M

target: FGFR2 (h) (Homo sapiens, UniProt P21802); test: FGFR2 (enzymatic assay), TR-FRET; type: biochemical; conditions: 0.4 μM ATP; pIC50 = -log IC50 (M); read-out: FGFR 2 pIC50 (converted)
Sequence (P21802 22-821): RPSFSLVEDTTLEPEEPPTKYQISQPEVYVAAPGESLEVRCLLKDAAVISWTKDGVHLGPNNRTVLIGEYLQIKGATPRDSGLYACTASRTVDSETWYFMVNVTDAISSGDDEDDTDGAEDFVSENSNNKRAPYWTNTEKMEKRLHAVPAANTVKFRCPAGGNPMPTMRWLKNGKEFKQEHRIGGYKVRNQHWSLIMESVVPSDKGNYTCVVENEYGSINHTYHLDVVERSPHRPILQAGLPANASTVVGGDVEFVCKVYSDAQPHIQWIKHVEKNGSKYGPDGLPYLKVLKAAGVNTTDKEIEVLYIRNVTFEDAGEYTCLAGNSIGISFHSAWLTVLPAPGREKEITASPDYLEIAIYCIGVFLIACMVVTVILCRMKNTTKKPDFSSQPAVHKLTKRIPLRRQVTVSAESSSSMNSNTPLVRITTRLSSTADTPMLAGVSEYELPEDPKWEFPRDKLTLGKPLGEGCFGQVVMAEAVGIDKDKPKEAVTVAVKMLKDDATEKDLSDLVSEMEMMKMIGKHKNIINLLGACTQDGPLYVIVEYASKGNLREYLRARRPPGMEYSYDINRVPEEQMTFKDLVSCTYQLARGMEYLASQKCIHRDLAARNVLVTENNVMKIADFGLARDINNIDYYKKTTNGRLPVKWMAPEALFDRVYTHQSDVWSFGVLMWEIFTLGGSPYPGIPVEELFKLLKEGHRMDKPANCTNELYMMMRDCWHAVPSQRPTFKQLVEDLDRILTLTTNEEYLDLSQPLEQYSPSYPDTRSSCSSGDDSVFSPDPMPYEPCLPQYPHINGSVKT

Structure (SMILES)	IC50
COc1cc(OC)cc(C(=O)c2ccc3ncn(-c4cnn(C)c4)c(=O)c3c2)c1 [Compound 24]	7.94e-07 M
COc1cc(OC)cc(N(CCNC(C)C)c2ccc3ncn(-c4cnn(C)c4)c(=O)c3c2)c1 [Compound 9]	6.31e-09 M
COc1cc(OC)c(F)c(N(CCNC(C)C)c2ccc3ncn(-c4cnn(C)c4)c(=O)c3c2)c1 [Compound 17]	1e-08 M

target: FGFR1 (h) (Homo sapiens, UniProt P11362); test: FGFR1 (enzymatic assay), TR-FRET; type: biochemical; conditions: not given

Structure (SMILES)	IC50
COc1cc(OC)cc(C(=O)c2ccc3ncn(-c4cnn(C)c4)c(=O)c3c2)c1 [Compound 24]	> 1000 nM
COc1cc(OC)cc(N(CCNC(C)C)c2ccc3ncn(-c4cnn(C)c4)c(=O)c3c2)c1 [Compound 9]	5.01 nM
COc1cc(OC)c(F)c(N(CCNC(C)C)c2ccc3ncn(-c4cnn(C)c4)c(=O)c3c2)c1 [Compound 17]	7.94 nM

target: T3, Ba/F3-FGFR1-transfected cells (Homo sapiens, UniProt P11362); test: Ba/F3-FGFR1 (minus IL3 or plus IL3) cellular proliferation assay; type: cell-based; conditions: 24 hours, Alamar Blue
T3 construct: other: minus IL3; 24 hours, Alamar Blue
Procedure: Ba/F3-FGFR1 (Minus IL3 or Plus IL3) (Cellular Proliferation Assay)
as §1, with “Ba/F3-FGFR1-transfected” for “Ba/F3-FGFR3-transfected”
as §2

Structure (SMILES)	BAF3-FGFR1 (MIN IL3 pIC50)
COc1cc(OC)cc(C(=O)c2ccc3ncn(-c4cnn(C)c4)c(=O)c3c2)c1 [Compound 24]	<5
COc1cc(OC)cc(N(CCNC(C)C)c2ccc3ncn(-c4cnn(C)c4)c(=O)c3c2)c1 [Compound 9]	7.2
COc1cc(OC)c(F)c(N(CCNC(C)C)c2ccc3ncn(-c4cnn(C)c4)c(=O)c3c2)c1 [Compound 17]	7.6

target: FGFR3 (h) (Homo sapiens, UniProt P22607); test: FGFR3 (enzymatic assay), TR-FRET; type: biochemical; conditions: 25 μM ATP; pIC50 = -log IC50 (M); read-out: FGFR3 pIC50 (converted)

Structure (SMILES)	IC50
COc1cc(OC)cc(C(=O)c2ccc3ncn(-c4cnn(C)c4)c(=O)c3c2)c1 [Compound 24]	7.94e-07 M
COc1cc(OC)cc(N(CCNC(C)C)c2ccc3ncn(-c4cnn(C)c4)c(=O)c3c2)c1 [Compound 9]	1e-08 M
COc1cc(OC)c(F)c(N(CCNC(C)C)c2ccc3ncn(-c4cnn(C)c4)c(=O)c3c2)c1 [Compound 17]	1.58e-08 M
